pKd: −log10 of the molar value.
target: T1, JAK2 (JH1 domain-catalytic, Y1007F,Y1008F) kinase (Homo sapiens, UniProt O60674, Y1007F/Y1008F); experiment: JAK2 Binding Assay (JAK2 JH1 Domain Binding Assay); conditions: JAK2 JH1 domain binding, qPCR detection; read-out: JAK2 Kd
T1 construct: made in house; host or cells: transiently transfected HEK293 cells
T1 sequence (O60674 849-1124 Y1007F/Y1008F limits assumed): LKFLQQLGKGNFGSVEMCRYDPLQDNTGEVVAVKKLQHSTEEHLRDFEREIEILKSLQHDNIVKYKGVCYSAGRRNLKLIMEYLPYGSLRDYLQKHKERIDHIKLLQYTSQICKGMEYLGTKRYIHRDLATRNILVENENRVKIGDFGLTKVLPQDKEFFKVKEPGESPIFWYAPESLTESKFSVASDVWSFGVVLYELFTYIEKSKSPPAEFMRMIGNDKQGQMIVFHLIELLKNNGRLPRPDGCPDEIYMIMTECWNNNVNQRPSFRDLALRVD

| pKd | Compound |
| --- | --- |
| > 8.00 | CNC(=O)Nc1cc(Oc2cnc3nc(Nc4cc5n(n4)CCCC5(F)F)n(C)c3c2C#N)ccn1 [Example I-27, 1-(4-((7-cyano-2-((4,4-difluoro-4,5,6,7-tetrahydropyrazolo[1,5-a]pyridin-2-yl)amino)-1-methyl-1H-imidazo[4,5-b]pyridin-6-yl)oxy)pyridin-2-yl)-3-methylurea] |
| > 8.00 | Cn1c(Nc2cc3n(n2)CCCC3(F)F)nc2ncc(Oc3ccnc(NC(=O)N4CC[C@@H](O)C4)c3)c(C#N)c21 [Example I-28, (R)-N-(4-((7-cyano-2-((4,4-difluoro-4,5,6,7-tetrahydropyrazolo[1,5-c]pyridin-2-yl)amino)-1-methyl-1H-imidazo[4,5-b]pyridin-6-yl)oxy)pyridin-2-yl)-3-hydroxypyrrolidine-1-carboxamide] |
| 7.30 to 8.00 | Cn1c(Nc2cc3n(n2)CCCC3(F)F)nc2ncc(Oc3ccnc(NC(=O)N4CC[C@H](O)C4)c3)c(C#N)c21 [Example I-29, (S)-N-(4-((7-cyano-2-((4,4-difluoro-4,5,6,7-tetrahydropyrazolo[1,5-a]pyridin-2-yl)amino)-1-methyl-1H-imidazo[4,5-b]pyridin-6-yl)oxy)pyridin-2-yl)-3-hydroxypyrrolidine-1-carboxamide] |
| 7.30 to 8.00 | COC(=O)Nc1cc(Oc2cnc3nc(Nc4cc(C(F)(F)F)n(C5CC6(COC6)C5)n4)n(C)c3c2C#N)ccn1 [Example I-31, Methyl(4-((2-((1-(2-oxaspiro[3.3]heptan-6-yl)-5-(trifluoromethyl)-1H-pyrazol-3-yl)amino)-7-cyano-1-methyl-1H-imidazo[4,5-b]pyridin-6-yl)oxy)pyridin-2-yl)carbamate] |
| > 8.00 | COCCOC(=O)Nc1cc(Oc2cnc3nc(Nc4cc5n(n4)CCCC5(F)F)n(C)c3c2C#N)ccn1 [Example I-32, 2-Methoxyethyl(4-((7-cyano-2-((4,4-difluoro-4,5,6,7-tetrahydropyrazolo[1,5-a]pyridin-2-yl)amino)-1-methyl-1H-imidazo[4,5-b]pyridin-6-yl)oxy)pyridin-2-yl)carbamate] |
| > 8.00 | CO[C@@H]1CCN(C(=O)Nc2cc(Oc3cnc4nc(Nc5cc6n(n5)CCCC6(F)F)n(C)c4c3C#N)ccn2)C1 [Example I-33] |
| > 8.00 | CO[C@H]1CCN(C(=O)Nc2cc(Oc3cnc4nc(Nc5cc6n(n5)CCCC6(F)F)n(C)c4c3C#N)ccn2)C1 [Example I-34, (S)-N-(4-((7-cyano-2-((4,4-difluoro-4,5,6,7-tetrahydropyrazolo[1,5-a]pyridin-2-yl)amino)-1-methyl-1H-imidazo[4,5-b]pyridin-6-yl)oxy)pyridin-2-yl)-3-methoxypyrrolidine-1-carboxamide] |
| > 8.00 | Cn1c(Nc2cc3n(n2)CCCC3(F)F)nc2ncc(Oc3ccnc(NC(=O)N4CC(O)C4)c3)c(C#N)c21 [Example I-35, N-(4-((7-cyano-2-((4,4-difluoro-4,5,6,7-tetrahydropyrazolo[1,5-a]pyridin-2-yl)amino)-1-methyl-1H-imidazo[4,5-b]pyridin-6-yl)oxy)pyridin-2-yl)-3-hydroxyazetidine-1-carboxamide] |
| > 8.00 | Cn1c(Nc2cc3n(n2)CCCC3(F)F)nc2ncc(Oc3ccnc(NC(=O)O[C@H]4CCOC4)c3)c(C#N)c21 [Example I-36, (S)-tetrahydrofuran-3-yl(4-((7-cyano-2-((4,4-difluoro-4,5,6,7-tetrahydropyrazolo[1,5-a]pyridin-2-yl)amino)-1-methyl-1H-imidazo[4,5-b]pyridinyl)oxy)pyridin-2-yl)carbamate] |
| > 8.00 | Cn1c(Nc2cc3n(n2)CCCC3(F)F)nc2ncc(Oc3ccnc(NC(=O)O[C@@H]4CCOC4)c3)c(C#N)c21 [Example I-37, (R)-tetrahydrofuran-3-yl(4-((7-cyano-2-((4,4-difluoro-4,5,6,7-tetrahydropyrazolo[1,5-a]pyridin-2-yl)amino)-1-methyl-1H-imidazo[4,5-b]pyridin-6-yl)oxy)pyridin-2-yl)carbamate] |
| > 8.00 | CN(C)CCOC(=O)Nc1cc(Oc2cnc3nc(Nc4cc5n(n4)CCCC5(F)F)n(C)c3c2C#N)ccn1 [Example I-38, 2-(Dimethylamino)ethyl(4-((7-cyano-2-((4,4-difluoro-4,5,6,7-tetrahydropyrazolo[1,5-a]pyridin-2-yl)amino)-1-methyl-1H-imidazo[4,5-b]pyridin-6-yl)oxy)pyridin-2-yl)carbamate] |
| 6.00 to 7.30 | CN1CC(OC(=O)Nc2cc(Oc3cnc4nc(Nc5cc(C(F)(F)F)cn(C)c5=O)n(C)c4c3C#N)ccn2)C1 [Example I-39, 1-Methylazetidin-3-yl(4-((7-cyano-1-methyl-2-((1-methyl-2-oxo-5-(trifluoromethyl)-1,2-dihydropyridin-3-yl)amino)-1H-imidazo[4,5-b]pyridin-6-yl)oxy)pyridin-2-yl)carbamate] |
| 5.30 to 6.00 | COC(=O)Nc1cc(Oc2cnc3nc(Nc4cc5n(n4)CCN(C)C5=O)n(C)c3c2Cl)ccn1 [Example I-40, Methyl(4-((7-chloro-1-methyl-2-((5-methyl-4-oxo-4,5,6,7-tetrahydropyrazolo[1,5-a]pyrazin-2-yl)amino)-1H-imidazo[4,5-b]pyridin-6-yl)oxy)pyridin-2-yl)carbamate] |
| 6.00 to 7.30 | COC(=O)Nc1cc(Oc2cnc3nc(Nc4cc5n(n4)CCN(C)C5=O)n(C)c3c2C#N)ccn1 [Example I-41, Methyl(4-((7-cyano-1-methyl-2-((5-methyl-4-oxo-4,5,6,7-tetrahydropyrazolo[1,5-a]pyrazin-2-yl)amino)-1H-imidazo[4,5-b]pyridin-6-yl)oxy)pyridin-2-yl)carbamate] |
| > 8.00 | Cn1cc(C(F)(F)F)cc(Nc2nc3ncc(Oc4ccnc(NC(=O)NC5CC5)c4)c(C#N)c3n2C)c1=O [Example I-42, 1-(4-((7-cyano-1-methyl-2-((1-methyl-2-oxo-5-(trifluoromethyl)-1,2-dihydropyridin-3-yl)amino)-1H-imidazo[4,5-b]pyridin-6-yl)oxy)pyridin-2-yl)-3-cyclopropylurea] |
| > 8.00 | COC(=O)Nc1cc(Oc2cnc3nc(Nc4cc5n(n4)CCOC5(C)C)n(C)c3c2C#N)ccn1 [Example I-43, Methyl(4-((7-cyano-2-((4,4-dimethyl-6,7-dihydro-4H-pyrazolo[5,1-c][1,4]oxazin-2-yl)amino)-1-methyl-1H-imidazo[4,5-b]pyridin-6-yl)oxy)pyridin-2-yl)carbamate] |
| > 8.00 | CN(C)C(=O)Nc1cc(Oc2cnc3nc(Nc4cc5n(n4)CCOC5(C)C)n(C)c3c2C#N)ccn1 [Example I-44, 3-(4-((7-cyano-2-((4,4-dimethyl-6,7-dihydro-4H-pyrazolo[5,1-c][1,4]oxazin-2-yl)amino)-1-methyl-1H-imidazo[4,5-b]pyridin-6-yl)oxy)pyridin-2-yl)-1,1-dimethylurea] |
| > 8.00 | Cn1c(Nc2cc3n(n2)CCOC3(C)C)nc2ncc(Oc3ccnc(NC(=O)N4CCCC4)c3)c(C#N)c21 [Example I-45, N-(4-((7-cyano-2-((4,4-dimethyl-6,7-dihydro-4H-pyrazolo[5,1-c][1,4]oxazin-2-yl)amino)-1-methyl-1H-imidazo[4,5-b]pyridin-6-yl)oxy)pyridin-2-yl)pyrrolidine-1-carboxamide] |
| < 5.30 | CN(C)C(=O)Nc1cc(Oc2cnc3nc(Nc4cc5n(n4)CCN(C)C5=O)n(C)c3c2Cl)ccn1 [Example I-46, 3-(4-((7-chloro-1-methyl-2-((5-methyl-4-oxo-4,5,6,7-tetrahydropyrazolo[1,5-a]pyrazin-2-yl)amino)-1H-imidazo[4,5-b]pyridin-6-yl)oxy)pyridin-2-yl)-1,1-dimethylurea] |

From patent publication US11970494B2, “6-heteroaryloxy benzimidazoles and azabenzimidazoles as JAK2 inhibitors” (Ajax Therapeutics, Inc., priority 2021, dated 2024)
